Source: patent US20260000645A1, “USE OF EBSELEN OR ONE OF THE DERIVATIVES THEREOF TO TREAT MITOCHONDRIAL PATHOLOGIES OR DYSFUNCTIONS” (ASSOCIATION FRANCAISE CONTRE LES MYOPATHIES, priority 2022, published 2026)

What was measured:
mutant yeast strain taz1 = assay: Halos test: respiratory growth of mutant yeast strain taz1 on non-fermentable solid medium; type: cell-based, Saccharomyces cerevisiae; conditions: 100 nmoles; compared with ebselen 100 nmoles; no halo with DMSO
Text: C/ Effect (detected by the halos test) of ebselen oxide on the respiratory growth of the mutant yeast strain taz1 on non-fermentable solid medium, in comparison with ebselen (B) and DMSO (D)
As previously described (WO2020/254632), the different mutant yeast strains were spread over the solid respiratory agar-agar based media (containing glycerol or ethanol as the unique carbon source) and exposed to filters on which the compound tested, in particular ebselen (EBS) was deposited. The dishes were then incubated at the temperature indicated (that could be 28° C. or 36° C. depending on the strain used).
More precisely, 0.125 OD of mutant cells with exponential growth were spread homogeneously with sterile glass beads in a square Petri dish (12 cm×12 cm) containing a solid respiratory medium (YPA Ethanol, 1% yeast extract, 0.5% Bacto Peptone, 40 mg/L Adenine, 2% Ethanol for sym1 and taz1; or YPA Glycerol 2% for cox2, fmc1, atp6, shy1 et A29G). […] On each dish, the DMSO (buffer) was used as negative control (upper left-hand filter). The dishes were then incubated at 28° C. (for shy1) or 36° C. (for cox2, sym1, fmc1, atp6 taz1 and A29G) for 4 to 5 days, then photographed. The improvement of the growth was evaluated after a plurality of days of incubation by the appearance of a halo of improved growth around the filter where the active ingredient was deposited.

[1] = tested on: fibroblasts of TAZ patients; assay: Respiratory growth/proliferation of fibroblasts of TAZ patients (SRB, low glucose); type: cell-based, human; conditions: 96 hours; vs negative control DMSO
Experimental: EBS was tested for the effect thereof on the respiratory growth of fibroblasts of TAZ patients, as opposed to fibroblasts from eight different patients, carriers of mutations in the TAZ gene (suffering from Barth's syndrome).
The rate of proliferation was measured in a medium with a weak concentration of glucose (1 g/L; to force cells to use the OXPHOS system rather than glycolyse) in 384 well micro-titration plates (1200 cells/wells at T0) using the Sulforhodamine B (SRB) staining protocol at 24, 48, 72 or 96 hours after placing the cells with or without 12.15 nM of EBS.
The data are the average of 8 patients or 3 controls in triplicate, in 4 independent experiments.
The rate of proliferation was then measured under the same experimental conditions but with variable concentrations of ethaselen: The cells were analyzed 96 hours after treatment with increasing doses of ethaselen (from 150 pM to 26.1 μM). The bars represent the average of 4 replicates coming from 2 patients in 3 independent experiments.

SMILES | respiratory growth (halo) of mutant taz1 (mutant yeast strain taz1) | concentration range improving respiratory growth/proliferation, lower limit [1] | concentration range improving respiratory growth/proliferation, upper limit [1] [µM]
O=C1c2ccccc2[Se](=O)N1c1ccccc1 (stereo not drawn) [ebselen oxide, 1-oxide-2-phenyl-1,2-benzisoselenazol-3(2H)-one] | activity comparable to ebselen | – | –
O=c1c2ccccc2[se]n1CCn1[se]c2ccccc2c1=O [ethasalen, Ethaselen] | – | about 1 nM | ≤ 3
